Patent US20230234931A1, “NON-STEROIDAL ANTI-INFLAMMATORY COMPOUNDS” (University of Houston System, priority 2022, published 2023)

Assays:
PC-3 cells = experiment: Cancer cell PC-3 migration assay (gap size); type: cell-based; conditions: after 39 hours of culture, compared with NS-398
Procedure: FIG. 10A-C. Anti-inflammatory and anti-cancer activities in cell cultural conditions. PC-3 migration assay treated with the lead compound #10. FIG. 10A The representative images of the PC-3 migration at 0 hour (left) and 39 hours (right) with DMSO, NS-398, and #10. FIG. 10B The time-course gap size of the PC-3 migration. The gap size was obtained using NIS-element software (NIKON). n=6. FIG. 10C Quantitative and significant analyses.
One day before the experiment, about 8.4×10^6 of PC-3 cells were cultured in 6-well plates with 2 mL of growth medium. A marker line was drawn on the outside plates to identify viewing spots. The medium was pre-warmed, and each treatment (DMSO, NS-398, and #10) was mixed with the medium. The cells were washed with PBS and replaced with 1.5 mL of medium containing a treatment, and observed at 0, 15, 24, and 39-hour points. NIS-element AR 3.0 (Nikon Instruments Inc.) software was used to take images at different time points with 10× magnification, and to measure gap sizes.
Inflammation is a factor that stimulates cell migration and is associated with a wide range of ailments including cancer (29). Inflammatory PGE2 produced by mPGES-1 has been reported to be directly associated with cancer cell migration and development (30-33). […] After 39 hours of culture, the gaps were measured (FIG. 10A) and quantified (FIG. 10B and FIG. 10C). […]

COX-2-10aa-mPGES-1 = target: T1, COX-2-10aa-mPGES-1 (Homo sapiens, UniProt O14684+P35354); experiment: Inhibition of PGE2 production in HEK293 cells expressing Enzymelink COX-2-10aa-mPGES-1; type: cell-based; conditions: HEK-293 cells, 1, 3 and 10 μM, arachidonic acid 0.5 μM, PGE2 by ELISA, compared with NS-398 (FIG. 9)
T1 construct: COX-2 (fusion partner); gene PTGS2, human entry P35354 by own knowledge; expressed in transfected cells; host or cells: HEK293
T1 sequence (P35354+O14684 with tags, fused parts or gaps): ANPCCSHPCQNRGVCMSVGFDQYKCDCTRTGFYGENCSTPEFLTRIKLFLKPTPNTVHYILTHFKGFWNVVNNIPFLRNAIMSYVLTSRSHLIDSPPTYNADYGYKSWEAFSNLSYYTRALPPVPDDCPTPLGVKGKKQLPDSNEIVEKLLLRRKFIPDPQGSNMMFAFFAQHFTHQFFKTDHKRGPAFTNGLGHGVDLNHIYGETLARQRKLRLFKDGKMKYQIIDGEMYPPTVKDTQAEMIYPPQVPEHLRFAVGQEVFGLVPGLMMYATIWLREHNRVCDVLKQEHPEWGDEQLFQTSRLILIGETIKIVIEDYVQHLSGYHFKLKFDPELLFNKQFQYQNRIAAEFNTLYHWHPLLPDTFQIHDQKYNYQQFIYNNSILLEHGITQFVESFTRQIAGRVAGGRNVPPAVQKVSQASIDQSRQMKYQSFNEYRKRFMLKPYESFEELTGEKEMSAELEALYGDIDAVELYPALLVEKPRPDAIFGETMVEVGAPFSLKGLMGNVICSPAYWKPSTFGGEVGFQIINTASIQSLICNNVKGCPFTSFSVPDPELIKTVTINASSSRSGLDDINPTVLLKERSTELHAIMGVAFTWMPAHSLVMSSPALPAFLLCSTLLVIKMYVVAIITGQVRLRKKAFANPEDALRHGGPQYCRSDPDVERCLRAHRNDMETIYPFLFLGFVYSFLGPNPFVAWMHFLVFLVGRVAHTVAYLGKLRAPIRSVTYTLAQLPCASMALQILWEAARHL
Procedure: FIG. 9. Dose response curves for the effects of the synthesized derivatives on mPGES-1-synthesized inflammatory PGE2, compared with COX-2 inhibitor. HEK-293 cells expressing inflammatory PGE-producing Enzymelink, COX-2-10aa-mPGES-1 described previously (11) were treated with increasing concentrations (1 μM, 3 μM, and 10 μM), of the derivatives. Arachidonic acid (0.5 μM) was added to initiate the biosynthesis of PGE2 through COX-2 and mPGES-1 catalysis (11). The produced PGE2 was detected by ELISA (11). COX-2 inhibitor, NS-398 was used as positive control. An unrelated chemical compound (#6) was used as a negative control.
COX linked PG synthase cDNAs of the hybrid enzyme COX-2 C-terminus was linked to the PGES N-terminus with 10 amino acids (COX-2-10aa-PGES) was constructed by a polymerase chain reaction (PCR) cloning approach. The resultant cDNA was sub-cloned into pcDNATM3.1 vectors containing a cytomegalovirus immediate-early promoter (11, 16).
The recombinant enzyme was expressed in HEK293 cells. […] The enzyme expressions were determined by a Western blot analysis. […]
The effect of compounds that inhibited PGE2 production were determined by HPLC. […]
The inhibitory effect on PGE2 production by mPGES-1 was determined by using previously developed HEK293 cells expressing our engineered Enzymelink, COX-2-10aa-mPGES-1.

Row | Compound | inhibition of cancer cell migration within the gaps (PC-3 cells) | inhibition of inflammatory PGE2 production (COX-2-10aa-mPGES-1)
1 | 2-[4-(trimethyl) phenyl]-1,3-benzoxazol-5-amine [3-Methyl] | very effective inhibition of cancer cell migration | able to inhibit inflammatory PGE2 production with very similar dose-response concentrations of the COX-2 inhibitor
2 | Nc1ccc2oc(-c3ccc(C(F)(F)F)cc3)nc2c1 [3-F, 2-[4-(trifluoromethyl)phenyl]-1,3-benzoxazol-5-amine] | very effective inhibition of cancer cell migration | able to inhibit inflammatory PGE2 production with very similar dose-response concentrations of the COX-2 inhibitor
